Assay results: patent US9623031B2, “Compositions, methods and kits for treating cancer” (priority 2011, dated 2017)
“Also recorded” adds a separate entry of the source.

Experiments:
[1] = tested on: FV-LSCs transplanted into BALB/c-Stk^−/− mice
Experimental: Transplant of FV-LSCs into BALB/c-Stk^−/− mice: FV-LSCs were generated as described above. 2.5×10^5 FV-LSCs were transplanted into BALB/c-Stk^−/− mice by retro-orbital injection. Six weeks after transplant the mice were treated with CyPGs or vehicle control as indicated in the text.
Treatment of Mice with PGs: Mice with FV-induced erythroleukemia or MIGR-BCR-ABL induced CML were treated on the indicated days with CyPGs. Mice were treated with a daily intraperitoneal injection of Δ^12-PGJ3 (0.01-0.1 mg/kg), 15d-PGJ2 (0.1 mg/kg), or 9,10-dihydro-15d-PGJ2 (0.1 mg/kg) for 7 days. All three compounds were formulated with hydroxypropyl-β-cyclodextrin (30% w/v; Sigma; vehicle control).
Stk^−/− mice are resistant to Friend virus infection so the leukemia developed by the transplanted mice is result of the transplanted LSCs and not FV infection. […] LSCs sorted from the spleens of FV-infected mice were transplanted into Stk^−/− mice (on a Balb/c background). After 6 weeks such mice were treated daily for 1 week with vehicle (hydroxypropyl-β-cyclodextrin), 15d-PGJ2 (0.05 mg/kg), or 9,10-dihydro-15d-PGJ2 (0.05 mg/kg) by intraperitoneal injection. The mice were sacrificed 51 days post LSC transplantation for analysis. An analysis of spleens of mice comparing splenomegaly in vehicle, 15d-PGJ2, or 9,10-dihydro-15d-PGJ2 treated transplanted mice was performed. Spleen weight compared to control (untransplanted mice) after treatment and WBC counts in the peripheral blood of the mice after treatment were examined, and a flow cytometric analysis of the spleen of untransplanted and LSC transplanted mice after treatment was performed. All data were mean±s.e.m. *p<0.05 compared to control or 9,10-dihydro-15d-PGJ2 treated groups. N=5 per group.

[2] = tested on: FV-LSCs (M34^+Kit^+Sca1^+); test: Apoptosis of FV-LSCs treated ex vivo (annexin V, flow cytometry); type: cell-based, mouse; conditions: 25 nM, 36 h; for apoptosis of FV-LSCs: annexin V
Experimental: On day 14 after infection, spleens were isolated and a single cell suspension of spleen cells was generated. The cells were filtered through a 70 μm sterile filter and flow-through cells were resuspended in RBC lysis buffer followed by centrifugation. Leukemia stem cells were isolated by FACS. Spleen cells were labeled with anti-Kit, Sca1 (BioLegend, San Diego, Calif.) and M34 antibodies. […] As indicated M34^+Kit^+Sca1^+ cells were cultured in Methocult media (Stem Cell Technologies Vancouver BC) M3334 supplemented with 200 ng/ml Sonic Hedgehog (Shh), 15 ng/ml bone morphogenetic protein-4 (BMP4) (both from R&D Systems Minneapolis, Minn.), and 50 ng/ml stem cell factor (SCF; Peprotech).
The cells were stained with annexin V-FITC and analyzed by flow cytometry. […] Means±s.e.m. *P<0.001 compared to vehicle (PBS). […] Inset: Effect of rosiglitazone on the apoptosis of LSC. Rosiglitazone (0.1-2.0 μM) was incubated with LSC in the culture media for 36 h as described earlier and the cells were subjected to annexin-V staining followed by flow cytometry. […] LSC were treated ex vivo with indicated concentrations of each compound for 36 h. Mean±s.e.m. shown *P<0.001.

[3] = tested on: Friend virus (FV)-induced erythroleukemia; test: FV-induced erythroleukemia in FV-infected mice, intraperitoneal treatment; type: in vivo, mouse
Excerpt: FV-induced erythroleukemia and production of FV leukemia stem cells (FV-LSCs): BALB/c mice were infected with FV as previously described (Subramanian A et al., J Virol. 2008; 82:382-393; Harandi O F et al., J Clin Invest. 2010; 120:4507-4519). On day 14 after infection, spleens were isolated and a single cell suspension of spleen cells was generated. The cells were filtered through a 70 μm sterile filter and flow-through cells were resuspended in RBC lysis buffer followed by centrifugation. Leukemia stem cells were isolated by FACS. Spleen cells were labeled with anti-Kit, Sca1 (BioLegend, San Diego, Calif.) and M34 antibodies. M34 is a monoclonal antibody that recognizes the envelope protein of SFFV (Chesebro B et al., Virology. 1981; 112:131-144) and was used as previously described (Subramanian A et al., J Virol. 2008; 82:382-393). As indicated M34^+Kit^+Sca1^+ cells were cultured in Methocult media (Stem Cell Technologies Vancouver BC) M3334 supplemented with 200 ng/ml Sonic Hedgehog (Shh), 15 ng/ml bone morphogenetic protein-4 (BMP4) (both from R&D Systems Minneapolis, Minn.), and 50 ng/ml stem cell factor (SCF; Peprotech). For CFU-FV assays, cells were plated in methylcellulose media containing fetal calf serum, but lacking added growth factors as previously described (Mager D L et al., Proc Natl Acad Sci USA. 1981; 78:1703-1707).
Complete blood counts of mice treated with Δ^12-PGJ3 (0.05 mg/kg) were examined. There is no difference in treated mice and untransplanted control mice in terms of white blood cell counts, red blood cell counts or platelet counts. Changes in hematological parameters in FV-infected mice upon treatment with CyPGs were examined. FV-infected Balb/c mice were treated with Δ^12-PGJ3 (0.05 mg/kg) intraperitoneally for 7 d following which the mice were sacrificed and hematological parameters were analyzed on an Advia blood analyzer. FV-infected Δ^12-PGJ3 treated mice were compared to infected vehicle controls. N=5 per group, all data are means±s.e.m. *P<0.05. 3% w/v hydroxypropyl-3-cyclodextrin was used as a vehicle in in vivo experiments. Spleen sizes of FV-infected mice that were treated with either vehicle, 9,10-dihydro-15d-PGJ2 (0.05 mg/kg), or 15d-PGJ2 (0.05 mg/kg) were examined; N=3 pre group. Hematological parameters of Balb/c uninfected, infected, and 15d-PGJ2 treated mice were examined. N=5 per group. All data were means±s.e.m. *P<0.05.
FV-LSC were targeted by 15d-PGJ2 in the spleen of FV-infected mice. FV-infected mice were treated with 15d-PGJ2 or 9,10-dihydro-15d-PGJ2 at 0.05 mg/kg for 7 d. The splenic LSC (M34^+Sca1^+Kit^+) cells were analyzed by flow cytometry on day 14 post infection. […] Uninfected and infected vehicle controls were used for comparison. N=3; *P<0.05. […] The colonies were counted 10-14 days after plating. N=3 mice per group, *p<0.05.

[4] = tested on: BCR-ABL^+LSC (Kit^+Sca1^+Lin^−GFP^+); test: Apoptosis of BCR-ABL+ LSCs treated ex vivo (annexin V, flow cytometry); type: cell-based, mouse; conditions: for apoptosis of Sca1+GFP+Kit+ BCR-ABL+LSC from spleen: 25-1000 nM, 36 h
Experimental: Apoptosis. Apoptosis of LSCs was performed using annexin V as described below in Supplementary Information and Methods.
Apoptosis. The LSCs were diluted in DMEM, resuspended using a 16-gauge needle, and collected by centrifugation. 1×10^5 cells were resuspended in 200 μl of binding buffer (0.1 M HEPES with 1.4 M NaCl, 25 mM CaCl2, pH 7.4). Annexin V FITC (BD Biosciences) was incubated with cells for 15 min on ice followed by flow cytometric analysis.
The ability of CyPGs derived from arachidonic acid (2 series PGs) to induce apoptosis was tested in cultures of LSCs from FV infected mice and in the murine CML model. […] 15d-PGJ2 is known as a PPAPγ agonist. […] In FIG. 7C Δ^12-PGJ3, 15d-PGJ2 or 9,10-dihydro-15d-PGJ2 are tested for their ability to induce apoptosis in a murine CML model. […] The cells were stained with annexin V-FITC and analyzed by flow cytometry. Representative of N=4. […] Inset: Effect of rosiglitazone on the apoptosis of LSC. Rosiglitazone (0.1-2.0 μM) was incubated with LSC in the culture media for 36 h as described earlier and the cells were subjected to annexin-V staining followed by flow cytometry. […] LSC were treated ex vivo with indicated concentrations of each compound for 36 h.
Following 36 h of incubation, apoptotic cells were quantified by annexin V staining. […] In a related study to address if Δ^12-PGJ3 treatment would cause any degranulation of granulocytes, a rat basophilic cell line ([…]) was treated with 100 nM Δ^12-PGJ3 and the degranulation was followed by quantitating the release of histamine and a second marker of degranulation, hexoseaminidase.
In this experiment, 500,000 BCR-ABL+ LSCs were plated in a 24-well plate followed and were treated with 25 nM PGD2Me or 100 nM ZK118182 (both are agonists of DP) for 24 h. GFP^+ cells were analyzed by flow cytometry. These agonists were purchased from Cayman Chemicals, MI.

[5] = tested on: murine erythroleukemia (MEL) cells; test: MEL cell apoptosis and viability (MTT, CCK-8); type: cell-based, mouse; conditions: anti-leukemic drugs 1 μM, nutlin 5 μM, 24 h, MTT/CCK-8
Experimental: Cell culture. Murine erythroleukemia (MEL) cells were cultured in DMEM with 10% FBS. In order to examine the production 3-series PGs, BALB/c-derived RAW264.7 macrophage-like cells (ATCC) were cultured in DMEM containing 5% FBS, 250 nM sodium selenite, and 50 μM EPA (as BSA conjugate) for 72 h followed by stimulation with E. coli endotoxin lipopolysaccharide (LPS; Serotype 0111B4; 50 ng/ml) for 30 min. The cells were cultured in fresh DMEM for an additional 24-144 h. Cells cultured with cell culture-grade fatty acid free BSA (Sigma Aldrich) served as a control. Culture media was withdrawn at various times and analyzed for 3-series PGs as described below. Total RNA was isolated from cells or tissues using Trizol reagent as per the instructions of the supplier (Invitrogen, Carlsbad, Calif.) and cDNA was prepared using a High Capacity cDNA Reverse Transcriptase kit (Applied Biosystems, Foster City, Calif.). Semiquantitative RT-PCR for p53 and β-actin was performed with primers as described in Supplementary Methods. Nuclear and cytoplasmic protein extracts of LSCs were prepared using standard methods previously described (Vunta H et al., J Biol Chem. 2007; 282:17964-17973).
Cell viability studies. MEL cells were cultured in DMEM containing 10% FBS and treated with various commonly used anti-leukemic drugs such as daunorubicin (DNR), mitoxantrone (MIT), and cytarabine (CYT) at a final concentration […] for 24 h. […] After 24 h of drug treatment, cell proliferation was measured by MTT assay with CCK-8 kit from Dojindo Molecular Technologies, Inc. (Gaithersburg, Md.). All viability values reported are relative to untreated cells (UT) that was designated to be 100%. Results represent the mean±SEM of three independent observations.
In order to address whether MEL cells are resistant in general to chemotherapy agents, we tested whether MEL cells can be killed by apoptosis when treated with standard anti-leukemia drugs. Treatment with various commonly used anti-leukemic drugs such as daunorubicin (DNR), mitoxantrone (MIT), and cytarabine (CYT) at a final concentration 1 μM for 24 h. […] After 24 h of drug treatment, cell proliferation was measured by MTT assay with CCK-8 kit from Dojindo Molecular Technologies, Inc. (Gaithersburg, Md.). […] The results represent the mean±SEM of three independent observations.

[6] = tested on: p53; test: p53 expression in FV-LSCs treated ex vivo (RT-PCR, nuclear extracts); type: cell-based, mouse
[7] = tested on: LSCs; test: Apoptosis of LSCs as summarised in the discussion (model not specified or both models); type: cell-based, mouse; conditions: FV-induced leukemia and BCR-ABL+ retrovirus-based murine CML model

**Q.** With `CCCCC/C=C/C=C1/C(=O)C=C[C@@H]1C/C=C\CCCC(=O)O` [15d-PGJ2, reference compound] as the compound, how does the “hematocrit, WBC counts and reticulocyte counts” value ([1]; FV-induced leukemia, FIG. 3C) read?
**A.** Its value is “significantly decreased”.

**Q.** What about the “LSCs (M34+Sca1+Kit+) in the spleen” value ([1]; flow cytometry after 1 week i.p. treatment) of the same compound?
**A.** The value was “eradication of FV LSCs in the spleen and resolution of the diseases”.

**Q.** What about the “apoptosis of FV-LSCs” value [2] of the same compound?
**A.** The value was “able to induce apoptosis; also recorded: Responses similar to Δ^12-PGJ3”.

**Q.** What about the “LSCs (Sca1+Kit+M34+) in the spleen” value ([3]; 0.05 mg/kg i.p. 7 d, flow cytometry day 14 post infection) of the same compound?
**A.** The value was “significant decrease in LSC numbers; also recorded: Identical results”.

**Q.** And the “total leukocyte and reticulocyte counts” value ([3]; i.p. 7 days)?
**A.** The value was “decreased to normal levels”.

**Q.** What about the “Friend virus viral replication” value ([3]; mouse, in vivo) of the same compound?
**A.** The value was “does not affect Friend virus viral replication”.

**Q.** What about the CFU-FV colony formation ([3]; spleen cells of treated mice plated without growth factors) of the same compound?
**A.** Its CFU-FV colony formation is “significantly decreased the number of transformed leukemia cells”.

**Q.** And the “apoptosis of Sca1+GFP+Kit+ BCR-ABL+LSC from spleen” value [4]?
**A.** Its value is “active; also recorded: significantly increased their apoptosis”.

**Q.** For `COc1cccc2c1C(=O)c1c(O)c3c(c(O)c1C2=O)C[C@@](O)(C(C)=O)C[C@@H]3O[C@H]1C[C@H](N)[C@H](O)[C@H](C)O1` [daunorubicin], which “sensitivity of MEL cells to drugs” value [5] is on record?
**A.** The value was “caused significant apoptosis; also recorded: exhibited sensitivity”.

**Q.** `O=C1c2c(O)ccc(O)c2C(=O)c2c(NCCNCCO)ccc(NCCNCCO)c21` [mitoxantrone] was tested. Which “sensitivity of MEL cells to drugs” value [5] did it give?
**A.** Its value is “caused significant apoptosis; also recorded: exhibited sensitivity”.

**Q.** What does the source list for `CCCCC[C@H](O)/C=C/[C@H]1C(=O)C=C[C@@H]1C/C=C\CCCC(=O)O` [PGJ2]?
**A.** p53 expression at transcript level ([6]; 10 or 25 nM, 12 h): only a minor degree; p53 expression after preincubation of compound with media ([6]; preincubated at 37° C. for 42 h before adding LSCs): increased expression of p53; apoptosis of FV-LSCs [2]: largely ineffective

**Q.** With `CCCCC[C@H](O)C/C=C1/C(=O)C=C[C@@H]1C/C=C\CCCC(=O)O` [Δ^12-PGJ2] as the compound, how does the “apoptosis of FV-LSCs” value [2] read?
**A.** The value was “able to induce apoptosis; also recorded: Responses similar to Δ^12-PGJ3”.

**Q.** And the “apoptosis of Sca1+GFP+Kit+ BCR-ABL+LSC from spleen” value [4]?
**A.** Its value is “active”.

**Q.** `CCCCC[C@H](O)/C=C/[C@H]1C(=O)C[C@H](O)[C@@H]1C/C=C\CCCC(=O)OC` [PGD2Me, 9α,15S-dihydroxy-11-oxo-prosta-5Z,13E-dien-1-oic acid, methyl ester] was tested. Which “apoptosis of BCR-ABL+ LSCs by synthetic DP agonists (GFP+ cells)” value ([4]; 25 nM PGD2Me or 100 nM ZK118182, 24 h) did it give?
**A.** The value was “can induce apoptosis of LSCs”.

**Q.** `CC/C=C\C/C=C/C=C1/C(=O)C=C[C@@H]1C/C=C\CCCC(=O)O` [15d-PGJ3, reference compound] was tested. Which “increase in apoptosis of FV-LSCs” value [2] did it give?
**A.** The value was ~75%.

**Q.** And the “targeting of LSCs for apoptosis” value [7]?
**A.** The value was “targeted LSCs for apoptosis”.

**Q.** `CC/C=C\C[C@H](O)/C=C/[C@H]1C(=O)C=C[C@@H]1C/C=C\CCCC(=O)O` [PGJ3, reference compound] was tested. Which “increase in apoptosis of FV-LSCs” value [2] did it give?
**A.** Its value is 2 fold.

**Q.** What about the “targeting of LSCs for apoptosis” value [7] of the same compound?
**A.** Its value is “ineffective”.

**Q.** Which “inhibition of Δ^12-PGJ3-induced apoptosis by DP antagonist” value ([4]; antagonist 10 nM, 2 h pretreatment, then 25 nM Δ^12-PGJ3, 36 h) does the source give for `CS(=O)(=O)c1cc(F)cc2c3c(n(Cc4ccc(Cl)cc4)c12)[C@@H](CC(=O)O)CC3` [MK0824] here?
**A.** The value was “inhibited”.

**Q.** For `Nc1ccn([C@@H]2O[C@H](CO)[C@@H](O)[C@@H]2O)c(=O)n1` [cytarabine], which “sensitivity of MEL cells to drugs” value [5] is on record?
**A.** Its value is “caused significant apoptosis; also recorded: exhibited sensitivity”.

**Q.** Which “sensitivity of MEL cells to drugs” value [5] does the source give for `COc1ccc(C2=NC(c3ccc(Cl)cc3)C(c3ccc(Cl)cc3)N2C(=O)N2CCNC(=O)C2)c(OC(C)C)c1` (stereo not shown) [nutlin] here?
**A.** The value was “not”.

**Q.** And the “sensitivity of MEL cells to drugs” value ([5]; listed as Nutlin)?
**A.** The value was “lack of activation of p53 and apoptosis”.

**Q.** For `O=C(NC(NC(=S)Nc1ccc(F)c([N+](=O)[O-])c1)C(Cl)(Cl)Cl)C(c1ccccc1)c1ccccc1` (stereo not shown) [CGK-733], which “block of Δ^12-PGJ3-dependent p53 expression by ATM inhibitors” value ([6]; preincubation, then Δ^12-PGJ3) is on record?
**A.** Its value is “blocked the CyPG-dependent expression of p53”.
